Measured values reported in patent publication US20250195521A1 (Revolution Medicines, Inc., priority 2020, published 2025).

Each compound was assayed on NCI-H358 (K-Ras G12C) (assay: CellTiter-Glo cell viability assay, NCI-H358). Details: 5-day treatment; read-out: H358 Cell Viability assay data (K-Ras G12C, IC50).
Type: cell-based, human
Procedure: Determination of Cell Viability in RAS Mutant Cancer Cell Lines Protocol: CellTiter-Glo® Cell Viability Assay
Note—The following protocol describes a procedure for monitoring cell viability of K-Ras mutant cancer cell lines in response to a compound of the invention. Other RAS isoforms may be employed, though the number of cells to be seeded will vary based on cell line used.
Test compounds (132.5 nL) were directly dispensed into the assay plates containing cells. […] On day 5, assay plates and their contents were equilibrated to room temperature for approximately 30 minutes. […] Luminescence was measured using the PerkinElmer Enspire. Data were normalized by the following: (Sample signal/Avg. DMSO)*100. The data were fit using a four-parameter logistic fit.

| IC50 [µM] | Structure (SMILES) |
| --- | --- |
| 0.01 to 0.1 | C=CC(=O)N1CC[C@H](C(=O)N(C)[C@H](C(=O)N[C@H]2Cc3cc(O)cc(c3)-c3ccc4c(c3)c(c(-c3cccnc3)n4C(C)(C)C#N)CC(C)(C)COC(=O)[C@@H]3CCCN(N3)C2=O)C(C)C)C1 [Compound A74] |
| < 0.01 | C=CC(=O)N1CC[C@H](C(=O)N(C)[C@H](C(=O)N[C@H]2Cc3cc(O)cc(c3)-c3ccc4c(c3)c(c(-c3cnccc3[C@H](C)OC)n4CC)CC(C)(C)COC(=O)[C@@H]3CCCN(N3)C2=O)C(C)C)C1 [Compound A112] |
| > 10 | C=CC(=O)N1CC[C@H](C(=O)N(C)[C@H](C(=O)N[C@H]2Cc3cccc(c3)-c3ccc4c(c3)c(c(-c3cnccc3[C@H](C)OC)n4CC)CC(C)(C)COC(=O)[C@@H]3CCCN(N3)C2=O)C(C)C)C1 [Compound A122] |

Same assay, conditions: Homo sapiens, NCI-H358, 120 h, 5-day treatment; read-out: H358 Cell Viability assay data (K-Ras G12C, IC50)

| IC50 [µM] | Structure (SMILES) |
| --- | --- |
| > 10 | C=CC(=O)N1CCN(C(=O)N(C)[C@H](C(=O)N[C@H]2Cc3cc(O)cc(c3)-c3ccc4c(c3)c(c(-c3ccccc3CCOC)n4CC)CC(C)(C)COC(=O)[C@@H]3CCCN(N3)C2=O)C(C)C)C[C@@H]1COC [Compound A125] |
| > 10 | CCn1c(-c2ccccc2CN(C)C)c2c3cc(ccc31)-c1cc(O)cc(c1)C[C@H](NC(=O)[C@@H](C(C)C)N(C)C(=O)c1ncc(NC(=O)/C=C/CN(C)C)n1C)C(=O)N1CCC[C@H](N1)C(=O)OCC(C)(C)C2 [Compound A126] |
| < 0.01 | CCn1c(-c2cnccc2[C@H](C)OC)c2c3cc(ccc31)-c1cccc(c1)C[C@H](NC(=O)[C@H](C1CCCC1)N(C)C(=O)[C@H]1CCN(C(=O)C#CCN(C)C)C1)C(=O)N1CCC[C@H](N1)C(=O)OCC(C)(C)C2 [Compound A133] |
| > 10 | C=CC(=O)N1CC[C@H](C(=O)N(C)[C@H](C(=O)N[C@H]2Cc3cc(ccn3)-c3ccc4c(c3)c(c(-c3cccnc3COC)n4CC)CC(C)(C)COC(=O)[C@@H]3CCCN(N3)C2=O)C(C)C)C1 [Compound A136] |
| 0.01 to 0.1 | C=CC(=O)N1CC[C@H](C(=O)N(C)[C@H](C(=O)N[C@H]2Cc3cc(O)cc(c3)-c3ccc4c(c3)c(c(-c3cc(CN(C)C)cnc3COC)n4CC)CC(C)(C)COC(=O)[C@@H]3CCCN(N3)C2=O)C(C)C)C1 [Compound A149] |
| 0.1 to 1 | C=CC(=O)N1CC[C@H](C(=O)N(C)[C@H](C(=O)N[C@H]2Cc3cc(O)cc(c3)-c3ccc4c(c3)c(c(-c3cccnc3)n4C3CC3)CC(C)(C)COC(=O)[C@@H]3CCCN(N3)C2=O)C(C)C)C1 [Compound A160] |
| > 10 | C=CC(=O)N1CC(NC[C@H](C(=O)N[C@H]2Cc3cc(O)cc(c3)-c3ccc4c(c3)c(c(-c3cccnc3COC)n4CC)CC(C)(C)COC(=O)[C@@H]3CCCN(N3)C2=O)C(C)C)C1 [Compound A174] |
| > 10 | C/C=C(\C#N)C(=O)N1CC[C@H](C(=O)N(C)[C@H](C(=O)N[C@H]2Cc3cc(O)cc(c3)-c3ccc4c(c3)c(c(-c3cccnc3COC)n4CC)CC(C)(C)COC(=O)[C@@H]3CCCN(N3)C2=O)C(C)C)C1 [Compound A178] |
| > 10 | C=CC(=O)N1CC[C@@H](C(=O)N(C)[C@H](C(=O)N[C@H]2Cc3cc(O)cc(c3)-c3ccc4c(c3)c(c(-c3cncnc3)n4CC)CC(C)(C)COC(=O)[C@@H]3CCCN(N3)C2=O)C(C)C)O1 [Compound A179] |
| > 10 | C=CC(=O)N1CC[C@H](C(=O)N(C)[C@H](C(=O)N[C@H]2Cc3cc(O)cc(c3)-c3ccc4c(c3)c(c(-c3cncnc3)n4CC)CC(C)(C)COC(=O)[C@@H]3CCCN(N3)C2=O)C(C)C)O1 [Compound A180] |
| < 0.01 | CCn1c(-c2cccnc2[C@H](C)OC)c2c3cc(ccc31)-c1cc(O)cc(c1)C[C@H](NC(=O)[C@H](C(C)C)N(C)C(=O)[C@H]1CCN(C(=O)C#CCN3CCOCC3)C1)C(=O)N1CCC[C@H](N1)C(=O)OCC(C)(C)C2 [Compound A182] |
| > 10 | COCc1ncccc1-c1nc2ccc3cc2n1CC(C)(C)COC(=O)[C@@H]1CCCN(N1)C(=O)[C@@H](NC(=O)[C@H](C(C)C)N(C)C(=O)[C@H]1CCN(C(=O)C#CCN2CCOCC2)C1)Cc1cc(O)cc-3c1 [Compound A188] |
| > 10 | CCn1c(-c2cccnc2COC)c2c3cc(ccc31)-c1cc(O)cc(c1)C[C@H](NC(=O)[C@H](C(C)C)N(C)C(=O)[C@H]1CCN(C(=O)C#CCN3CCN(C)CC3)C1)C(=O)N1CCC[C@H](N1)C(=O)OCC(C)(C)C2 [Compound A189] |
| > 10 | CCn1c(-c2cncnc2)c2c3cc(ccc31)-c1cccc(c1)[C@@H](OC)[C@H](NC(=O)[C@H](C(C)C)N(C)C(=O)[C@H]1CCN(C(=O)C#CCN3CCOCC3)C1)C(=O)N1CCC[C@H](N1)C(=O)OCC(C)(C)C2 [Compound A208] |

The next lines start with the compound.

| Structure (SMILES) | IC50 [µM] |
| --- | --- |
| C=CC(=O)N1CC[C@H](C(=O)N(C)[C@H](C(=O)N[C@H]2Cc3cc(O)cc(c3)-c3ccc4c(c3)c(c(-c3ncccc3COC)n4CC)CC(C)(C)COC(=O)[C@@H]3CCCN(N3)C2=O)C(C)C)C1 [Compound A16] | 0.01 to 0.1 |
| CCn1c(-c2cnccc2COC)c2c3cc(ccc31)-c1cc(O)cc(c1)C[C@H](NC(=O)[C@H](C(C)C)N(C)C(=O)[C@H]1CCN(C=O)C1)C(=O)N1CCC[C@H](N1)C(=O)OCC(C)(C)C2 [Compound A17, (2S)—N-[(8S,14S)-22-ethyl-4-hydroxy-21-[4-(methoxymethyl)pyridin-3-yl]-18,18-dimethyl-9,15-dioxo-16-oxa-10,22,28-triazapentacyclo [18.5.2.1^2,6.1^10,14.0^23,27]nonacosa-1 (26), 2,4,6 (29),20,23 (27),24-heptaen-8-yl]-2-{1-[(3S)-1-formylpyrrolidin-3-yl]-N-methylformamido}-3-methylbutanamide] | 0.1 to 1 |
| CCn1c(-c2cnccc2COC)c2c3cc(ccc31)-c1cc(O)cc(c1)C[C@H](NC(=O)[C@H](C(C)C)N(C)C(=O)[C@H]1CCN(C(=O)C(C)C)C1)C(=O)N1CCC[C@H](N1)C(=O)OCC(C)(C)C2 [Compound A29] | 0.1 to 1 |
| C=CC(=O)N1CC[C@H](C(=O)N(C)[C@H](C(=O)N[C@H]2Cc3cc(O)cc(c3)-c3ccc4c(c3)c(c(-c3ccc(C5CCN(C)CC5)cc3)n4CC)CC(C)(C)COC(=O)[C@@H]3CCCN(N3)C2=O)C(C)C)C1 [Compound A39] | 0.01 to 0.1 |
| C=CC(=O)N1CC[C@H](C(=O)N(C)[C@H](C(=O)N[C@H]2Cc3cc(O)cc(c3)-c3ccc4c(c3)c(c(-c3ccc5c(c3)CCN(C)C5)n4CC)CC(C)(C)COC(=O)[C@@H]3CCCN(N3)C2=O)C(C)C)C1 [Compound A40] | 0.01 to 0.1 |
| CCn1c(-c2ccccc2CN(C)C)c2c3cc(ccc31)-c1cc(O)cc(c1)C[C@H](NC(=O)[C@H](C(C)C)N(C)C(=O)c1ccc(NC(=O)/C=C/CN(C)C)cn1)C(=O)N1CCC[C@H](N1)C(=O)OCC(C)(C)C2 [Compound A46] | > 10 |
| CCn1c(-c2cnccc2COC)c2c3cc(ccc31)-c1cc(O)cc(c1)C[C@H](NC(=O)[C@@H](OC(=O)N(C)C)C(C)C)C(=O)N1CCC[C@H](N1)C(=O)OCC(C)(C)C2 [Compound A53] | 0.1 to 1 |
| C=CC(=O)N1CC[C@H](C(=O)N(C)[C@H](C(=O)N[C@H]2Cc3cc(O)cc(c3)-c3ccc4c(c3)c(c(-c3cncnc3)n4CC)CC(C)(C)COC(=O)[C@@H]3CCCN(N3)C2=O)C(C)C)C1 [Compound A61] | 0.01 to 0.1 |
| C=CC(=O)N1CC[C@@]2(CCCN([C@H](C(=O)N[C@H]3Cc4cc(O)cc(c4)-c4ccc5c(c4)c(c(-c4ccccc4CCOC)n5CC)CC(C)(C)COC(=O)[C@@H]4CCCN(N4)C3=O)C(C)C)C2=O)C1 [Compound A63] | 0.1 to 1 |
| CCn1c(-c2cccnc2COC)c2c3cc(ccc31)-c1cc(O)cc(c1)C[C@H](NC(=O)[C@H](C(C)C)N(C)C(=O)[C@H]1CCN(C(=O)/C=C/CN3CCN(C)CC3)C1)C(=O)N1CCC[C@H](N1)C(=O)OCC(C)(C)C2 [Compound A72] | > 10 |
| C=CC(=O)N1CC[C@H](C(=O)N(C)[C@H](C(=O)N[C@H]2Cc3cc(O)cc(c3)-c3ccc4c(c3)c(c(-c3cnccc3[C@H](C)OC)n4CC)CC(C)(C)COC(=O)[C@@H]3CCCN(N3)C2=O)C(C)C)C1 [Compound A76] | < 0.01 |
| CCn1c(-c2ccccc2COC)c2c3cc(ccc31)-c1cc(O)cc(c1)C[C@H](NC(=O)[C@H](C(C)C)N(C)C(=O)[C@H]1CCN(C(=O)/C=C/CN(C)C)C1)C(=O)N1CCC[C@H](N1)C(=O)OCC(C)(C)C2 [Compound A79] | 0.01 to 0.1 |
| CCn1c(-c2cnccc2COC)c2c3cc(ccc31)-c1cc(O)cc(c1)C[C@H](NC(=O)[C@H](C(C)C)N(C)C(=O)C1CCN(C)CC1)C(=O)N1CCC[C@H](N1)C(=O)OCC(C)(C)C2 [Compound A84] | 0.1 to 1 |
| CCn1c(-c2ccccc2CN(C)C)c2c3cc(ccc31)-c1cc(O)cc(c1)C[C@H](NC(=O)[C@H](C(C)C)N(C)C(=O)c1nc(NC(=O)/C=C/CN(C)C)cs1)C(=O)N1CCC[C@H](N1)C(=O)OCC(C)(C)C2 [Compound A90] | > 10 |
| CCn1c(-c2cccnc2[C@H](C)OC)c2c3cc(ccc31)-c1cccc(c1)C[C@H](NC(=O)[C@H](C(C)C)N(C)C(=O)[C@H]1CCN(C(=O)CN(C)C)C1)C(=O)N1CCC[C@H](N1)C(=O)OCC(C)(C)C2 [Compound A96] | < 0.01 |
| C=CC(=O)N1CC[C@H](C(=O)N(C)[C@H](C(=O)N[C@H]2Cc3cc(O)cc(c3)-c3cc4c(c(-c5ccccc5CCOC)n(CC)c4cn3)CC(C)(C)COC(=O)[C@@H]3CCCN(N3)C2=O)C(C)C)C1 [Compound A102] | > 10 |

Same assay, conditions: Homo sapiens, NCI-H358, 120 h, read-out: H358 Cell Viability assay data (K-Ras G12C, IC50, uM), 5-day treatment

| Structure (SMILES) | IC50 [µM] |
| --- | --- |
| C=CC(=O)N1CC[C@H](C(=O)N(C)[C@H](C(=O)N[C@H]2Cc3cc(O)cc(c3)-c3ccc4c(c3)c(c(-c3cc(C)cnc3[C@H](C)OC)n4CC)CC(C)(C)COC(=O)[C@@H]3CCCN(N3)C2=O)C(C)C)C1 [Compound A167] | < 0.01 |

Same assay, conditions: read-out: H358 Cell Viability assay data (K-Ras G12C, IC50); 5-day treatment

| IC50 [µM] | Structure (SMILES) |
| --- | --- |
| > 10 | CC#CC(=O)N1CC[C@H](C(=O)N(C)[C@@H](C(=O)N[C@H]2Cc3cc(O)cc(c3)-c3ccc4c(c3)c(c(-c3cccnc3[C@H](C)OC)n4CC)CC(C)(C)COC(=O)[C@@H]3CCCN(N3)C2=O)C(C)C)C1 [Compound A198] |
